Key:
[1] = patients with cancer, 150 mg/day dose; 500 ng/ml is the average concentration targeted for clinical efficacy; cited from earlier work
[2] = system: NSCLC patients for whom standard therapy for advanced disease has failed; conditions: single agent versus placebo, BR.21; cited from earlier work
[3] = system: patients with advanced NSCLC following failure of at least one prior chemotherapy regimen; assay: Open-label predictive marker identification Phase II study of Tarceva monotherapy 150 mg/day; RECIST response and survival; type: in vivo, human; conditions: 102 patients with evaluable microarray data
Procedure: The selection of this dose was based on pharmacokinetic parameters, as well as the safety and tolerability profile of this dose observed in Phase I, II and III trials in heavily pre-treated patients with advanced cancer. Drug levels seen in the plasma of patients with cancer receiving the 150 mg/day dose were consistently above the average plasma concentration of 500 ng/ml targeted for clinical efficacy.
This was an open-label, predictive marker identification Phase II study. The study was conducted in approximately 26 sites in about 12 countries. 264 patients with advanced NSCLC following failure of at least one prior chemotherapy regimen were enrolled over a 12 month period. […] Dose reductions were permitted based on tolerability to drug therapy. Clinical and laboratory parameters were assessed to evaluate disease control and toxicity. Treatment continued until disease progression, unacceptable toxicity or death. The study design is depicted in FIG. 1.
The RECIST (Uni-dimensional Tumour Measurement) criteria were used to evaluate response. These criteria can be found under the following link: […]
A regular status check every 3 months was performed either by a patient's visit to the clinic or by telephone. All deaths were recorded. […]

SMILES: C#Cc1cccc(Nc2ncnc3cc(OCCOC)c(OCCOC)cc23)c1 [Erlotinib, erlotinib]
- Drug levels in plasma [1]: > 500 ng/mL
- survival of NSCLC patients [2]: significantly prolongs and improves the survival
- Best Response PD [3]: (48.0%)
- Best Response PR [3]: (5.9%)

Reference: US20110190321A1, “[…] FOR EGFR INHIBITOR TREATMENT” (priority 2007, published 2011)
